According to paper PMC12723384, “A S180F substitution in D-alanine aminotransferase confers resistance to β-chloro-D-alanine in Staphylococcus aureus” (The Journal of Biological Chemistry, 2025):

Assays:
Format in all cases: biochemical
[1] = molecular target: T1, D-alanine aminotransferase (Dat) (Staphylococcus aureus, UniProt A0A0H2XHU6); assay: lactate dehydrogenase-coupled assay of pyruvate production from D-alanine, A340
T1 construct: recombinant HIS-tagged wild-type Dat from JE2, expressed from pET28b in E. coli
T1 sequence (A0A0H2XHU6 1-282): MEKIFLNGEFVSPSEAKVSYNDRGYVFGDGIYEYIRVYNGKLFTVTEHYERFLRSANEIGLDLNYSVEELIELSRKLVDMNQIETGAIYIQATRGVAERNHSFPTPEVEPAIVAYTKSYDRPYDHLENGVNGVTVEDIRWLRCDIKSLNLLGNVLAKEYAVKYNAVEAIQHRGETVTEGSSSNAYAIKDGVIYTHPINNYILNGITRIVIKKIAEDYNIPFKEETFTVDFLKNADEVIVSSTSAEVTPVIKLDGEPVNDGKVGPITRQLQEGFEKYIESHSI

[2] = molecular target: T2, D-alanine aminotransferase (Dat-S180F) (Staphylococcus aureus, UniProt A0A0H2XHU6, S180F); assay: as above
T2 construct: recombinant HIS-tagged Dat-S180F from BCDA1, expressed from pET28b in E. coli
T2 sequence (A0A0H2XHU6 1-282 S180F): T1 sequence (A0A0H2XHU6 1-282)

[3] = molecular target: T3, D-alanine aminotransferase (Dat) (Staphylococcus aureus, UniProt Q5HF24); assay: lactate dehydrogenase-coupled assay, turnover of […] D-alanine to pyruvate
T3 construct: recombinant HIS-tagged wild-type Dat

Question: What does the source list for `N[C@H](CCl)C(=O)O` [BCDA, β-chloro-D-alanine]?
Answer: IC50 [1]: 96.8 ± 12 µM; IC50 [2]: 34 ± 4.7 µM

Question: `C[C@@H](N)C(=O)O` [D-alanine] was tested. Which “lactate dehydrogenase-coupled assay, turnover of 25 mM D-alanine to pyruvate” value [3] did it give?
Answer: comparison of wild-type Dat (green) and Dat-S180F (violet) enzymatic production of pyruvate from D-alanine
